We go through four molecules from patent publication US11730792B2, “Coversin (OmCI) for the treatment of autoimmune blistering diseases: bullous pemphigoid (BP) and epidermolysis bullosa acquisita (EBA)” (VOLUTION IMMUNO PHARMACEUTICALS SA, priority 2017, dated 2023).

“Also recorded” adds a separate entry of the source.

For series [1], the target named is T1, C5 (Rattus norvegicus, UniProt P08650).
T1 construct: from tissue; host or cells: rat serum
Put plainly: Prevention of C5 cleavage by C5 convertase in rat serum. Type of series: biochemical. From the text:
(§1) Coversin was isolated from the salivary glands of the tick Ornithodoros moubata. Coversin is an outlying member of the lipocalin family and is the first lipocalin family member shown to inhibit complement activation. Coversin inhibits the classical, alternative and lectin complement pathways by binding to C5 and preventing its cleavage by C5 convertase into C5a and C5b, thus inhibiting both the production of C5a, which is an active (e.g. proinflammatory) peptide, and the formation of the MAC.

The target of series [2] is T2, C5 (Mus musculus, UniProt P06684).
T2 construct: from tissue; host or cells: mouse serum
As to the kind of experiment: Prevention of C5 cleavage by C5 convertase in mouse serum. Type of series: biochemical.
From the text: as §1

Series [3] relates to experimental EBA. Put plainly: Antibody transfer EBA model, Coversin administered prophylactically (Example 1). Type of series: in vivo, mice. Also on record: Two-way ANOVA, vehicle control versus Coversin: dose or concentration left out as unconfirmed. The conditions noted are these: for Two-way ANOVA, vehicle control versus Coversin: combined experiments 1 and 2; for percentage ABSA: prophylactic. The method, then:
(§2) Antibody transfer EBA was induced using a modified version of the protocol described by Sitaru et al., 2005 [43]. Five mice were tested in each treatment group. […] Mice were injected subcutaneously twice daily with three varying doses of Coversin starting […] before the first injection of anti-Col7 IgG (day −2). This application was continued throughout the experiment until its last day on day 11. In the control groups the mice received only the vehicle subcutaneously, or 20 mg/kg methylprednisolone once daily.
To generate antibodies directed to murine type VII collagen (“anti-COL7”), New Zealand White rabbits were immunized with 200 μg of a protein mixture containing three different recombinant proteins (“Col7A, B, and C”) derived from the non-collagenous 1 (NC1) domain of collagen VII together with incomplete Freund's adjuvant. IgGs were isolated from the serum of immunized rabbits by use of protein G, and afterwards IgGs were affinity-purified with his-Col7 to specifically obtain rabbit anti-Col7 IgG. Antibodies were quality checked by determining the titer and the potency in the cryosection assay.
(§3) Starting on day 4, the extent of skin lesions was scored in each individual mouse every other day. […] The percentage of the total body surface affected by skin lesions (ABSA) was calculated.
Two independent experiments were conducted.

Series [4] has as its system Antibody transfer EBA-like skin inflammation. Put plainly: Passive EBA mouse model, Coversin administered therapeutically from day 5 (Example 2). Type of series: in vivo, C57Bl/6J WT mice. The conditions noted are these: for Two-way ANOVA, vehicle control versus Coversin: all doses used, N=5 per group. The method, then:
The study included the following experimental groups, with 5 mice in each experimental group: • 1. Vehicle (PBS) control group • 2. 125 μg/kg Coversin 2× daily s.c. • 3. 2500 μg/kg Coversin 2× daily s.c.
Antibody transfer EBA-like skin inflammation was induced, as described in Sezin et al.
The treatment of mice with Coversin started on Day 5 of the experiment (Day 0=day of first administration of anti-COL7 antibody). Afterwards, mice were injected 12 hourly s.c. in the scapular region with Coversin or vehicle control until the end of the experiment.
Disease severity was scored. […] The percentage of the absolute body surface affected by skin lesions (ABSA) was calculated. To score the disease, the mice were anesthetized every other day with a mixture of ketamine/xylazine administered i.p. starting day 4 of the experiment.
Two independent experiments were conducted according to this protocol.
Prior to the beginning of the experiment mean weight of the mice was calculated and 2.5 mg/kg and 0.125 mg/kg of the drug were prepared freshly to a final volume of 100 μl in PBS pH 7.2. The drug was prepared freshly, twice daily, 30 minutes before the final injection into the mice. Thereafter, based on the mean weight of the mice the drug was adjusted with PBS pH 7.2 to a concentration appropriate to provide the required mg/kg dose in a final volume of 100 μl. Drug was prepared freshly twice daily, 30 minutes before the final application into the animals. As a vehicle control 100 μl of PBS pH 7.2 was injected s.c into the mice.
ABSA between treatment groups was evaluated by two-way ANOVA conducted using GraphPad Prism 7.

The subject of series [5] is experimental EBA. Put plainly: Experimental EBA, prophylactic PAS-L-Coversin versus Coversin (Example 4). Type of series: in vivo, mice. The conditions noted are these: 2.5 mg/kg Coversin; for Clinical score of experimental EBA: prophylactic. The method, then:
as §2, §3
In a further experiment, the effect of PAS-L-Coversin was assessed. Mice were treated with 0.1 mg/kg, 10 mg/kg, 1 mg/kg PAS-L-Coversin, or 2.5 mg/kg Coversin, with the experiment being carried out as described above. […] The sequence of the L-Coversin sequence is a variant of the mature Coversin sequence (SEQ ID NO: 4) in which the following residues have been modified: Ala44 to Asn, Met116 to Gln, Leu117 to Ser, Gly121 to Ala, Leu122 to Asp, Glu123 to Ala and Asp149 to Gly, (referred to as variant 2, sequence is dsesdctgse pvdafqafse gkeayvlvrs tdpkardclk gepNgekqdn tlpvmmtfkn gtdwastdwt ftldgakvta tlgnitqnre vvydsqshhc hvdkvekevp dyemwQSdag ADAveveccr qkleelasgr nqmyphlkGc (SEQ ID NO:23), where the changes relative to the native Coversin sequence of SEQ ID NO:4 are in capitals). Because of the higher molecule weight of the PAS-L-Cov, 10 mg/kg PAS-L-Cov corresponds to 2.5 mg/kg Coversin. In the first experiment (FIG. 6A) the 10 mg/kg dose but not 1 mg/kg or 0.1 mg/kg dose of PAS-L-Coversin reduced ABSA compared to control. In the second experiment (FIG. 6B), the 10 mg/kg dose and the 1 mg/kg but not the 0.1 mg/kg dose of PAS-L-Coversin reduced ABSA compared to control.

The target of series [6] is T3, C5 (Homo sapiens, UniProt P01031). The conditions noted are these: surface plasmon resonance, ref [31]; cited from earlier work.
Target sequence in this assay (P01031 19-1676): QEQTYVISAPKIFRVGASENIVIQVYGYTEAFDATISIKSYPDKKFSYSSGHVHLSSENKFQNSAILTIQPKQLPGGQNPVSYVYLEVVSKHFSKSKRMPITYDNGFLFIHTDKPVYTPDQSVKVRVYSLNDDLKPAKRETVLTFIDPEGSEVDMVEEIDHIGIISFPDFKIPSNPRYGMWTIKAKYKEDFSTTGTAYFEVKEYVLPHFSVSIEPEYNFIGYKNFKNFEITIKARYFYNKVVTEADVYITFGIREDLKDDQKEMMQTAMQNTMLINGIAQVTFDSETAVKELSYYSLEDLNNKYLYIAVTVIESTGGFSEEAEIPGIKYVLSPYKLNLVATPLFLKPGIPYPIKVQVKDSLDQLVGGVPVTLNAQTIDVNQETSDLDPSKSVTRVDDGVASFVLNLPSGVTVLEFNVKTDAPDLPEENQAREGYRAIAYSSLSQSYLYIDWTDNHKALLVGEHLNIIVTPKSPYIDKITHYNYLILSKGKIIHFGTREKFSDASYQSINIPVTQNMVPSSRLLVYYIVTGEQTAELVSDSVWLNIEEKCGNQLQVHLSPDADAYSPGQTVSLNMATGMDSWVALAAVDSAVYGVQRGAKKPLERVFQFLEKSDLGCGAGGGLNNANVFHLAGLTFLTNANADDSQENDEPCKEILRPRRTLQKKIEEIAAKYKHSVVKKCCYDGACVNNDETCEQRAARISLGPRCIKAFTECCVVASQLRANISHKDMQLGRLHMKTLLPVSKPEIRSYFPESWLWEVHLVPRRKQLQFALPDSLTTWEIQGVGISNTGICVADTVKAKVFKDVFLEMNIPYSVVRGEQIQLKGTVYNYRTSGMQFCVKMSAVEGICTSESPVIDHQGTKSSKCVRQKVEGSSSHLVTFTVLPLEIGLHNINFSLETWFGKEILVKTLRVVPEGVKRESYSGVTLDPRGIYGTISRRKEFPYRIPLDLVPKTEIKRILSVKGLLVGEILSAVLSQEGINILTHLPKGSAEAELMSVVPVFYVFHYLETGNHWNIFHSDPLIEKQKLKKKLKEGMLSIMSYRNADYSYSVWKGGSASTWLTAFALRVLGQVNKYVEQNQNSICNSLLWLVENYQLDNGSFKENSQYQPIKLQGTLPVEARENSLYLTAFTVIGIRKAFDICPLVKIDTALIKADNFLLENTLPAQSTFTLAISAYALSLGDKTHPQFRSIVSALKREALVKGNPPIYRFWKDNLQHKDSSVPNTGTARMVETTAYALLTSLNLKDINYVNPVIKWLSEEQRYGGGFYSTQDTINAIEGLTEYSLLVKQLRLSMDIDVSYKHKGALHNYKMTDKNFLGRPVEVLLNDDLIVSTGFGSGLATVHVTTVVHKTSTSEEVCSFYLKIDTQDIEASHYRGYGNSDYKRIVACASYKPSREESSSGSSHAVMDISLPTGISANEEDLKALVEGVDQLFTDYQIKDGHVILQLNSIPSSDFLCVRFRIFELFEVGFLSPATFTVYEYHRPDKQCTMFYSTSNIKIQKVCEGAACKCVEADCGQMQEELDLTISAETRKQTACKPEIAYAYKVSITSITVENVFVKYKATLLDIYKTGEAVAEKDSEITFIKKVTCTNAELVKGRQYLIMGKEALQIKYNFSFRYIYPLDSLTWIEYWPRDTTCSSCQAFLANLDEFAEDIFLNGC
The target of series [7] is T3, C5. As to the kind of experiment: Prevention of C5 cleavage by C5 convertase in human serum. In kind it is biochemical. Also on record: from tissue; host or cells: human serum.
From the text: as §1
Target sequence in this assay (P01031 678-1676 limits assumed): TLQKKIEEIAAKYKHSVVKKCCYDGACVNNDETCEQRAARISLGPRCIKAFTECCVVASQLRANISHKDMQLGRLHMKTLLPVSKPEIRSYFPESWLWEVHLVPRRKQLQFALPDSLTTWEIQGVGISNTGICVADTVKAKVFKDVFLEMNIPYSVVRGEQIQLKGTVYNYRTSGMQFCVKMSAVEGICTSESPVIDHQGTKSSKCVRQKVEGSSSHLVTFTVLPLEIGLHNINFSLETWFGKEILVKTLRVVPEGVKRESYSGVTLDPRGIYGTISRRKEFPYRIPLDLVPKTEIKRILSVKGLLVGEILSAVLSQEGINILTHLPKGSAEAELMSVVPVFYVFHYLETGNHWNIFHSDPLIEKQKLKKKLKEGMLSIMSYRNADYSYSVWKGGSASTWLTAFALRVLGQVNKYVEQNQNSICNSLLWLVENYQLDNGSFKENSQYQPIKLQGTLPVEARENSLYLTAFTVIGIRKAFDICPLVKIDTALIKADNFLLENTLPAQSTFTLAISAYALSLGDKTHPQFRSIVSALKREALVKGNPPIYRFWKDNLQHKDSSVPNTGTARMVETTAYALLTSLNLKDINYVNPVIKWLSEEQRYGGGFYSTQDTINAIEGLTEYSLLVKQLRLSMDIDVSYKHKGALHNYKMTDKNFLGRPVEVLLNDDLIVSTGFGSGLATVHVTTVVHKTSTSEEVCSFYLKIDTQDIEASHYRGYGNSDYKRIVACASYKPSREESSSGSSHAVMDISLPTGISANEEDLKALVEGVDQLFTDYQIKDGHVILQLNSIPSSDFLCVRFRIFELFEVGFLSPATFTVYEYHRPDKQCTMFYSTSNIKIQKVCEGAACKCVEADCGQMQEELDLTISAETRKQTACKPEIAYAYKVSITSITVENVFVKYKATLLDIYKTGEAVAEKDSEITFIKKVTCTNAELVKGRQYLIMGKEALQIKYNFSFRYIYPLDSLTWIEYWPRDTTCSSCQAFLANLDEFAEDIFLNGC
Target sequence in this assay (P01031 19-673 partner limits assumed): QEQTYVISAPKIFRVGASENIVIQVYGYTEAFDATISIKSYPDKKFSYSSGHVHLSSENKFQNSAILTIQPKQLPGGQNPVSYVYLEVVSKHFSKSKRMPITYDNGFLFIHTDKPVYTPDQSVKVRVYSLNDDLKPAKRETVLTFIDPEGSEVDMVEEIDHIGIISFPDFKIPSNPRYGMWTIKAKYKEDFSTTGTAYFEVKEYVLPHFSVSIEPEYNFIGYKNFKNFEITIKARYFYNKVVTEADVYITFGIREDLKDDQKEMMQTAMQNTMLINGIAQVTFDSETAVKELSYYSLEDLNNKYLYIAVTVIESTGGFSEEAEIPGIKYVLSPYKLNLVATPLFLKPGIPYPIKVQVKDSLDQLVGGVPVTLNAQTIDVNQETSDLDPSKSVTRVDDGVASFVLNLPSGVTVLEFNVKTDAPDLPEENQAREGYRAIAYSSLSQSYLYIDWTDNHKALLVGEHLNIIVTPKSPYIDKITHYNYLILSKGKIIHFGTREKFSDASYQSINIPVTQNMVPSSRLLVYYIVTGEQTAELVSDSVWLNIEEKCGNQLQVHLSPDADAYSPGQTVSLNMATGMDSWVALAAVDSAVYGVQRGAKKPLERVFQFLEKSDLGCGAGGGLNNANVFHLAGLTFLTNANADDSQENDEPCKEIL

Series [8] concerns the target T4, Ornithodoros moubata Coversin (EV576, OmCI), amino acids 19 to 168 of SEQ ID NO: 2 (SEQ ID NO: 4) (Ornithodoros moubata, UniProt Q5YD59).
T4 sequence (Q5YD59 19-168): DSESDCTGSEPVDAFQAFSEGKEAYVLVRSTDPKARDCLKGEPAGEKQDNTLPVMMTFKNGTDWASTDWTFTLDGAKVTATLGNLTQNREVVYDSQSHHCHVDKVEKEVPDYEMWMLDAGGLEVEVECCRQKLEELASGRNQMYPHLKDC
Put plainly: LTB4 binding to Coversin by fluorescence titration. The method, then: This may be carried out by may be carried out as follows:
Purified 100 nM solutions of Coversin, in 2 mL PBS were applied in a quartz cuvette (10 mm path length; Hellma, Malheim, Germany) equipped with a magnetic stirrer. Temperature was adjusted to 20° C. and, after equilibrium was reached, protein Tyr/Trp fluorescence was excited at 280 nm (slit width: 15 nm). The fluorescence emission was measured at 340 nm (slit width: 16 nm) corresponding to the emission maximum. […] For calculation of the KD value, data was normalized to an initial fluorescence intensity of 100%, the inner filter effect was corrected using a titration of 3 μM N-acetyl-tryptophanamide solution and data was plotted against the corresponding ligand concentration. Then, non-linear least squares regression based on the law of mass action for bimolecular complex formation was used to fit the data with Origin software version 8.5 (OriginLab, Northampton, Mass., USA) using a published formula (Breustedt et al., 2006).

The test system of series [9] is Experimental EBA. The conditions noted are these: ref [44], cited from earlier work.
A short description of series [10]: LTB4 binding of L-Coversin (method not given). The conditions noted are these: mutated Coversin sequence (variant 2).
For series [11], the target named is T3, C5. As to the kind of experiment: C5 binding of L-Coversin (method not given). The conditions noted are these: mutated Coversin sequence (variant 2).
Target sequence in this assay (P01031 19-1676): as the sequence (P01031 19-1676) above

Broadly, the Kd is the concentration at which binding is half-saturated.

T1 sequence (P08650 19-1681): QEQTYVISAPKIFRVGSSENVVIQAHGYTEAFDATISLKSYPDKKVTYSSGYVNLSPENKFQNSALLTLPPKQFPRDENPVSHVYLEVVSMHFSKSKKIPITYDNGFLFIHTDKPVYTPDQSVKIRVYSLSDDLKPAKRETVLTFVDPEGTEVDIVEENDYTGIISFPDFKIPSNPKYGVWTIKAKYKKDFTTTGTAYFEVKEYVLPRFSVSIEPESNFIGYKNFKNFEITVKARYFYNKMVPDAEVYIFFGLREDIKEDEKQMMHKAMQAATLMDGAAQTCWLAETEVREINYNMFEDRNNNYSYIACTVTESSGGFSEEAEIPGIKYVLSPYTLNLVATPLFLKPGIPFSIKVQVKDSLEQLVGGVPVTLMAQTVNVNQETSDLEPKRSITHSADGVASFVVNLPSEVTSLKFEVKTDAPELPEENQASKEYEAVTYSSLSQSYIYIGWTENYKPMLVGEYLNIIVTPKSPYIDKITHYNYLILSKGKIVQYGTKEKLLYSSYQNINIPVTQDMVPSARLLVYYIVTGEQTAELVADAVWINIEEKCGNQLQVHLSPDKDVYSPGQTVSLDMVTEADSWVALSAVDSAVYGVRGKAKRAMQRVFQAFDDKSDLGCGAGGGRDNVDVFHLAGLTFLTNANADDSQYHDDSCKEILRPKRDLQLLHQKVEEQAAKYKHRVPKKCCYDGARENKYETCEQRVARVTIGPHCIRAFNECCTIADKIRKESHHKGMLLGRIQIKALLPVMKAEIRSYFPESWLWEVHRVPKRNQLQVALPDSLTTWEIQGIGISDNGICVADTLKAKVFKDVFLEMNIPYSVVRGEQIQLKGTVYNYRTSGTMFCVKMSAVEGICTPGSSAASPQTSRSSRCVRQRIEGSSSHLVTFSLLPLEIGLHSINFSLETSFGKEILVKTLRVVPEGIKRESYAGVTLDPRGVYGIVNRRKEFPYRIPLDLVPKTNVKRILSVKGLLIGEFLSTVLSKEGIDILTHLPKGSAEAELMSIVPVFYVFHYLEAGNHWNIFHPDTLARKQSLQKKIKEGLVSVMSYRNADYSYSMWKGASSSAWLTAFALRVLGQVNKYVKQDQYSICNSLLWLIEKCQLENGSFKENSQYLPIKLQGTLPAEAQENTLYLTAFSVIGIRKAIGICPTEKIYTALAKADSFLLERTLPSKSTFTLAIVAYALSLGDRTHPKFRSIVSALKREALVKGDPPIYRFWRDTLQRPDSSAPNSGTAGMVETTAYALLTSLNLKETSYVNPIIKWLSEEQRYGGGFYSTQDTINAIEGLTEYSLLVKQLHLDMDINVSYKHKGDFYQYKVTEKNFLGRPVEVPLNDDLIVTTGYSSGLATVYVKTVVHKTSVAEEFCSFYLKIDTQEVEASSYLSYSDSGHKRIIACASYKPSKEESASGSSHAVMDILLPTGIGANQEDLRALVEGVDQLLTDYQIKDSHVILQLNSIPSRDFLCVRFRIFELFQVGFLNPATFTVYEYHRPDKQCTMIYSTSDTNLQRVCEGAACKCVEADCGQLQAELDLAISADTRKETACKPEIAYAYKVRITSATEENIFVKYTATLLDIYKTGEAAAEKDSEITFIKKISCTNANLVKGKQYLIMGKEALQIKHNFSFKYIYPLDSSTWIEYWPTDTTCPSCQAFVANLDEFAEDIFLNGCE

As for “Coversin: tick Ornithodoros moubata protein, amino acids 19 to 168 of SEQ ID NO: 2 (SEQ ID NO: 4); binds C5 and LTB4”, the “IC50, binding C5 and preventing its cleavage by C5 convertase” value in the series with C5 [1], with C5 [2] and with C5 [7] was “approximately 0.02 mg/ml” throughout. For the same molecule, the “Two-way ANOVA, vehicle control versus Coversin” value in the series with experimental EBA [3] (dose 250) is “statistically significant difference”; in the series on experimental EBA [3] (dose 2500), “statistically significant difference”; in series [4] (Experiment 1 (FIG. 7), females) it was “significant differences”; in series [4] (Experiment 2 (FIG. 8), males), “significant differences”. In addition, the “Clinical score of experimental EBA” value with experimental EBA [3] (combined results of experiments 1 and 2 (FIG. 5), all doses) was “ameliorated disease”; in the series with experimental EBA [3] (experiment 1 (FIG. 3), all doses of Coversin, vs vehicle control group and methylprednisolone group), “ameliorated disease”; in the series on experimental EBA [3] (experiment 2 (FIG. 4), all doses of Coversin, vs vehicle control group and methylprednisolone group) it was “ameliorated disease”; in the series with experimental EBA [5] (Example 4, experiment 1 (FIG. 6A)), “ameliorated disease”; with experimental EBA [5] (Example 4, experiment 2 (FIG. 6B)), “ameliorated disease”. Also, the “reduction of percentage ABSA compared with previously tested agents (Zileuton, methylprednisolone)” value in the series on experimental EBA [3] (comparison with similar earlier experiments, particularly at 2.5 mg/kg and 0.25 mg/kg) is “to a greater degree; also recorded: greater effect”. The “significance of effect compared to vehicle control group” value in the series with experimental EBA [3] (experiment 2 (FIG. 4), only at the 2.5 mg/kg dose) is listed as “significant effect”. Moreover, the “difference in ABSA between vehicle and treated” value in the series with experimental EBA [3] (first experiment, 0.25 mg/kg dose, P 0.0023 by two tailed t-test) is listed as 63%. Besides, the “mean ABSA score (SD)” value with experimental EBA [3] (first experiment, 0.25 mg/kg dose, day 10, vehicle 6.23+1.1) is recorded as 2.65+0.4. The “percentage ABSA” value in the series on experimental EBA [3] (first experiment, Coversin 25 μg/kg s.c. twice daily) is given as “reduced”; with experimental EBA [3] (first experiment, Coversin 250 μg/kg s.c. twice daily), “further reduced”; with experimental EBA [3] (first experiment, Coversin 2500 μg/kg s.c. twice daily) it was “further reduced”. For the same molecule, the ABSA result in [4] (Experiment 1, 2.5 mg/kg Coversin, vehicle about 7%) is “effective in reducing ABSA”. The “skin inflammation measured by absolute body surface area affected (ABSA), dose dependence” value in series [4] (Experiment 1, females, 125 and 2500 μg/kg 2× daily s.c. from day 5) was “dose-dependently ameliorated skin inflammation”. For the same molecule, the “skin inflammation, dose dependence” value in series [4] (Experiment 2 (FIG. 8), males, 125 and 2500 μg/kg 2× daily s.c. from day 5) was “dose-dependently ameliorated skin inflammation”. Moreover, the “skin inflammation measured by ABSA” value in [4] (Experiment 2, 2.5 mg/kg Coversin, vehicle peaked at about 4%) is reported as “significantly (P<0.01) ameliorated skin inflammation”. The deaths during treatment entry in series [4] (the two experiments, up to day 12) is listed as “no deaths”. In addition, in the series on experimental EBA [5] (second experiment (FIG. 6B)), the “statistical significance of effect on ABSA” value was “statistically significant effect”. Further, the Kd with C5 [6] is 1 nM.
Molecule `CCCCC/C=C\C[C@@H](O)/C=C/C=C/C=C\[C@@H](O)CCCC(=O)O` [LTB4, Leukotriene B4] displayed a Kd in [8] of 0.2 to 0.3 nM.
Take `CC(c1cc2ccccc2s1)N(O)C(N)=O` (stereo not shown) [Zileuton, N-[1-(1-benzothien-2-yl)ethyl]-N-hydroxyurea]: in the series with Experimental EBA [9] (0.6-0.8 mg/mouse/day in drinking water, female mice, control group 9.2±0.7), the “clinical score day 7” value was 5.9±0.5 % of affected surface body area. Also, the “disease severity as compared to control group” value in the series with Experimental EBA [9] (from day 7 until end-point, 0.6-0.8 mg/mouse/day) is “significantly reduced disease severity”.

B1: L-Coversin: SEQ ID NO: 23; SEQ ID NO: 4 with Ala44Asn, Met116Gln, Leu117Ser, Gly121Ala, Leu122Asp, Glu123Ala, Asp149Gly (protein)
chain: DSESDCTGSEPVDAFQAFSEGKEAYVLVRSTDPKARDCLKGEPNGEKQDNTLPVMMTFKNGTDWASTDWTFTLDGAKVTATLGNLTQNREVVYDSQSHHCHVDKVEKEVPDYEMWQSDAGADAVEVECCRQKLEELASGRNQMYPHLKGC
modifications: Coversin variant 2
Regarding B1, the LTB4 binding result in series [10] is “binds LTB4”. The C5 binding entry with C5 [11] is listed as “does not bind C5”.
